Results reported in ChEMBL document CHEMBL1143017, “Structural assignment of poecillastrins B and C, macrolide lactams from the deep-water Caribbean sponge Poecillastra species” (J Nat Prod, 2007).

Experiment: Cytotoxicity against human LOX cells
Type: cell-based

| SMILES | IC50 |
| --- | --- |
| COC1/C=C/C=C/CC/C=C/C=C/C(=O)NC(C(O)C(=O)O)C(=O)OC(C(NC(=O)C(C)C(O)CCC(C)C(O)/C(C)=C/C(C)(C)C(O)C(CC(C)C)NC(=O)/C=C/C(C)(C)C(=O)C(C)C(O)C(C)C)C(C)O)C(C)C(O)C/C=C(\C)C(O)C(C)/C=C(\C)C(O)C(C)C(O)CC2CC(C)CC1O2 (configuration not stated) [POECILLASTRIN B] | < 1 µg/mL |
| COC1/C=C/C=C/CC/C=C/C=C/C(=O)NC(C(O)C(=O)O)C(=O)OC(C(NC(=O)C(C)C(O)CCC(C)C(O)/C(C)=C/C(C)C(O)C(CC(C)C)NC(=O)/C=C/C(C)(C)C(=O)C(C)C(O)C(C)C)C(C)O)C(C)C(O)C/C=C(\C)C(O)C(C)/C=C(\C)C(O)C(C)C(O)CC2CC(C)CC1O2 (configuration not stated) [POECILLASTRIN C] | < 1 µg/mL |
